Here are results for ten compounds from patent publication US12065436B2, “Cardiac sarcomere inhibitors” (Cytokinetics, Inc., priority 2018, dated 2024).

Where two headings read alike, the source gives them in different places.

Assay [1] has as its target bovine cardiac myofibrils (full-length cardiac myosin ATPase in the native sarcomere) (Bos taurus (Bovine), UniProt Q9BE39). Briefly: Skinned bovine cardiac myofibril ATPase assay (PK/LDH-coupled). It counts as biochemical. The settings on record: Ca2+ activating to 75% of maximal rate; for CDMF75 IC15: concentration giving 15% inhibition; for IC50: read-out: CDMF75 IC50. A digest of the protocol: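 Inhibition of steady-state ATPase read at 340 nm through a PK/LDH-coupled NADH system (0.5 mM NADH, 1.5 mM PEP). Detergent-skinned bovine cardiac myofibrils, 1 mg/mL, were tested at pH 6.8 in PIPES/MgCl2 with 50 μM ATP and calcium adjusted to give pCa50 or pCa75 activation.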

Assay [2] has as its system adult cardiac ventricular rat myocytes. Briefly: Adult ventricular myocyte contractility (fractional shortening). The settings on record: 5 min, 5 min perfusion, read-out: % FS (% reduction from baseline) ± SEM; for inhibition at 10 µM: 10 μM compound. Type of assay: cell-based. The protocol: Adult male Sprague-Dawley rats were anesthetized and the hearts were quickly excised, rinsed and the ascending aorta was cannulated. Continuous retrograde perfusion was initiated on the hearts at a perfusion pressure of 60 cm H2O. Hearts were first perfused with a nominally Ca^2+-free modified Krebs solution of the following composition: 113 mM NaCl, 4.7 mM KCl, 0.6 mM KH2PO4, 0.6 mM Na2HPO4, 1.2 mM MgSO4, 12 mM NaHCO3, 10 mM KHCO3, 30 mM taurine, 5.5 mM glucose and 10 mM Hepes (all Sigma). This medium is not recirculated and is continually aerated with a 95% O2/5% CO2 mixture. After approximately 3 minutes the heart was perfused with a modified Krebs buffer supplemented with collagenase (Worthington) and 12.5 μM final calcium concentration. The heart was removed from the cannulae after the heart appeared blanched and soft in appearance. The atria and vessels were removed and the ventricles were gently dissected into smaller pieces with forceps. The tissue was homogenized by repeated pipette trituration and the collagenase reaction was stopped by 10% bovine calf serum (BCS), sedimentation and resuspension in perfusion buffer containing 5% BCS and 12.5 uM CaCl2). Myocytes were made calcium tolerant by stepwise addition of a CaCl2) solution to a final concentration of 1.2 mM. Cells were then washed and resuspended in Tyrode's buffer (137 mM NaCl, 3.7 mM KCl, 0.5 mM MgCl, 11 mM glucose, 4 mM Hepes, and 1.2 mM CaCl2), pH 7.4). Cells were kept for 60 min at 37° C. prior to initiating experiments and used within 5 hrs of isolation. […] Additionally, only cells whose basal contractility was between 3 and 8% were used in subsequent experiments with compounds.
Aliquots of myocytes in Tyrode's buffer were placed in perfusion chambers (series 20 RC-27NE; Warner Instruments) complete with heating platforms. Myocytes were allowed to attach, the chambers were heated to 37° C., and the cells were perfused with 37° C. Tyrode's buffer. Myocytes were field stimulated at 1 Hz in with platinum electrodes (20% above threshold). Only cells that had clear striations and were quiescent prior to pacing were used for contractility experiments. To determine basal contractility, myocytes were imaged through a 40× objective. […] Once cell contraction was stable over time, test compounds (0.01-15 μM) were perfused into the chambers on the myocytes for 5 minutes. Contractility of the myocytes and contraction and relaxation velocities were then recorded using edge detection.
Five or more individual myocytes were tested per compound from two or more different myocyte preparations. For each cell, twenty or more contractility transients at basal (defined as 1 min prior to compound infusion) and after compound addition (defined as 5 min after starting compound perfusion), were averaged and compared. These average transients were analyzed using the IonWizard software (IonOptix) to determine changes in diastolic length and fractional shortening. Fractional shortening was calculated as: ((resting length−length at peak contraction) divided by the resting length). The percent change in fractional shortening from baseline was calculated as: ((post-dose fractional shortening/basal fractional shortening)*100). The percent reduction in fractional shortening from baseline was calculated as: (100−percent change in fractional shortening from baseline). Maximum contraction and relaxation velocities (um/sec) was also determined. Results from individual cells are averaged and the SEM calculated.

The test system of assay [3] is rat cardiac contractility (left ventricle fractional shortening). Briefly: Echocardiography of acute effect on rat cardiac contractility, oral gavage. The settings on record: for inhibition in vivo at 10 mg/kg / IC50 / inhibition in vivo at 6 mg/kg / inhibition in vivo at 2 mg/kg / inhibition in vivo at 4.5 mg/kg: Rattus norvegicus; for inhibition in vivo at 10 mg/kg / inhibition in vivo at 6 mg/kg / inhibition in vivo at 2 mg/kg / inhibition in vivo at 4.5 mg/kg: oral gavage; for IC50 / IC10: oral dosing, estimated; for IC50: plasma concentration at which fractional shortening is 50% of pre-dose baseline; for IC10: plasma concentration at which. Type of assay: in vivo, Sprague Dawley rats. The protocol: (§1) Assessment of in vivo cardiac function by echocardiography was performed in male Sprague Dawley rats under isoflurane (1-3%) anesthesia. 2-D M-mode images of the left ventricle were acquired in the parasternal long-axis view before, during, and after administration of compounds by continuous IV infusion or oral gavage. In vivo fractional shortening was determined by M-mode image analysis with the following calculation: ((End diastolic diameter−end systolic diameter)/end diastolic diameter×100). For continuous IV infusion experiments, three pre-dose baseline M-mode images were taken at 1 minute intervals prior to infusion of compound. Compounds were formulated in 50% Propylene Glycol (PG): 16% Captisol: 10% dimethylacetamide (DMA) and delivered via a jugular vein catheter at the rate of 1 mL/kg/h. During infusion, M-mode images were taken at 5 minute intervals. The infusion stopped when fractional shortening reached up to a 60% reduction from baseline. Blood samples were taken to determine the plasma concentration of the compounds. Data was reported as an estimated IC50 value, which is the concentration at which fractional shortening is 50% of the pre-dose baseline contractility.
For oral dosing studies, three pre-dose baseline M-Mode images were taken at 1 minute intervals prior to compound administration. Compounds were formulated in a 0.5% hydroxypropyl methylcellulose 2910 (HPMC 2910): 0.1% Tween 80 suspension and delivered as a single dose (5 mL/kg) by oral gavage. Rats were lightly anesthetized for M-Mode echocardiography measurements at select time points over a 24 hour period. Different dose levels were evaluated for each compound. The compound effect on cardiac fractional shortening at the highest dose evaluated is presented in Table D as a percent reduction of baseline fractional shortening (=100%).
Concurrent with echocardiography measurements, blood samples were taken to determine the corresponding compound plasma concentration.

Assay [4] shares this test system. As to the kind of experiment: Echocardiography of acute effect on rat cardiac contractility, continuous IV infusion. Type of assay: in vivo, Sprague Dawley rats. The note with it: Rattus norvegicus, plasma concentration at which fractional shortening is 50% of pre-dose baseline, estimated, read-out: IC50 (Mean ± S.D.). The protocol: as §1
Setting [5] is: 1 h, 1-2 h post dose, read-out: FS (% reduction from baseline) at 1-2 h post dose (Mean ± S.D.).
Setting [6] is: 4 h post dose, read-out: FS (% reduction from baseline) at 4 h post dose (Mean ± S.D.).

Chain of bovine cardiac myofibrils (full-length cardiac myosin ATPase in the native sarcomere) (Q9BE39 whole entry): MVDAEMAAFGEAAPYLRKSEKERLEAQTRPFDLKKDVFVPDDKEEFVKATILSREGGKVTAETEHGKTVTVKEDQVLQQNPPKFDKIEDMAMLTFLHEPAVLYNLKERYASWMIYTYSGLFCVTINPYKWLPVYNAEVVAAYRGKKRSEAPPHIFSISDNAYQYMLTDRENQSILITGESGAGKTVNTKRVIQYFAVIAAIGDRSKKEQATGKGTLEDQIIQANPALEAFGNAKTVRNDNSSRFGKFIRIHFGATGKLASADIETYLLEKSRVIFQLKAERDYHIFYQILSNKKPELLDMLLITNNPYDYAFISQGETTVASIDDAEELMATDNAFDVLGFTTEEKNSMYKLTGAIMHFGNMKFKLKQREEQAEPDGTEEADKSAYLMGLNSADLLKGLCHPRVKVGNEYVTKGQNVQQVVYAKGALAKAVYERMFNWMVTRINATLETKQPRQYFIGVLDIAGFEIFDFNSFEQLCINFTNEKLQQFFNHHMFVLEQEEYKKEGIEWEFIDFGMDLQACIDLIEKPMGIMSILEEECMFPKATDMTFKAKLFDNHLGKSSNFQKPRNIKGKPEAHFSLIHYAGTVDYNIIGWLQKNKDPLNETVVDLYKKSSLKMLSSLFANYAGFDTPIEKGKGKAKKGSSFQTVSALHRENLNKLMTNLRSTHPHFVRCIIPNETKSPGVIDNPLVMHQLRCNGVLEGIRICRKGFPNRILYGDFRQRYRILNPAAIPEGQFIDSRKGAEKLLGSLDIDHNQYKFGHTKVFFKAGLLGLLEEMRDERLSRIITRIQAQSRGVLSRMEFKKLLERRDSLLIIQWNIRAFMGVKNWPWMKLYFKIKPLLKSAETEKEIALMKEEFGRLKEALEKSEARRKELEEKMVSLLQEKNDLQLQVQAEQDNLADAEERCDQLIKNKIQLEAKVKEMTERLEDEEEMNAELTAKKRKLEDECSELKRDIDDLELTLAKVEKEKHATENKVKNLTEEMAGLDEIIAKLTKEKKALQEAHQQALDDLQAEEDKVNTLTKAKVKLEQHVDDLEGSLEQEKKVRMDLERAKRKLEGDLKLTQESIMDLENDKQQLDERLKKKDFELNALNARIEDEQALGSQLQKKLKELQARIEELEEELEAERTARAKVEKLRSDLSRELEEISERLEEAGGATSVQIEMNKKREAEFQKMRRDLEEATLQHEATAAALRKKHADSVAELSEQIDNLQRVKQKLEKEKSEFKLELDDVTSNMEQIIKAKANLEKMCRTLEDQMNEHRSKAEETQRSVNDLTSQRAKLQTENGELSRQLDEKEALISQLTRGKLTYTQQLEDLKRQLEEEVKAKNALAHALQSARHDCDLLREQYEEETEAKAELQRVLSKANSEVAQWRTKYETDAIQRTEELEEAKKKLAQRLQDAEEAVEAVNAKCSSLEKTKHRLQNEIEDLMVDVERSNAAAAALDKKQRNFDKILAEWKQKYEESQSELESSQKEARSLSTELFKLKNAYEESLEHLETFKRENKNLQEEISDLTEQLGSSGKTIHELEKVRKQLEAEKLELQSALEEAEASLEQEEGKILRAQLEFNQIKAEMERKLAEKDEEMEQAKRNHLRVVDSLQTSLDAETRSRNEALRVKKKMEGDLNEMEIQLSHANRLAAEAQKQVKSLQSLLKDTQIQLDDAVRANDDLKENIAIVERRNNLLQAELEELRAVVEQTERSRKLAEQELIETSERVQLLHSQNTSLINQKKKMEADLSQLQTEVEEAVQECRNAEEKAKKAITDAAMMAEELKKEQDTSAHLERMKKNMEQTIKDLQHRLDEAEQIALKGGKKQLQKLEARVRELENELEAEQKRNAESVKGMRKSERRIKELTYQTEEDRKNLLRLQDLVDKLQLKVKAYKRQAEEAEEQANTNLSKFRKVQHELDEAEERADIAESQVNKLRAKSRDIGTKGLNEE
Chain of bovine cardiac myofibrils (full-length cardiac myosin ATPase in the native sarcomere) (P85100 whole entry partner): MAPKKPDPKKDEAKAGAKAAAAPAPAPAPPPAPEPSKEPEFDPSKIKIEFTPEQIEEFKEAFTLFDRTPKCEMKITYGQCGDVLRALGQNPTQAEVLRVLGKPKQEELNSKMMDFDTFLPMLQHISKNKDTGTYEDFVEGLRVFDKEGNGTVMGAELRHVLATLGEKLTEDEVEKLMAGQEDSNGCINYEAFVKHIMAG
Chain of bovine cardiac myofibrils (full-length cardiac myosin ATPase in the native sarcomere) (Q3SZE5 whole entry partner): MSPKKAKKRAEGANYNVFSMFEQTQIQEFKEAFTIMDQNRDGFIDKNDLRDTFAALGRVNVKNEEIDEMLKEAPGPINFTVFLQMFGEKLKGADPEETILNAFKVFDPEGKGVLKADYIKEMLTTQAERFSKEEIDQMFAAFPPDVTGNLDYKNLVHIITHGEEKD

For the compound `Cc1cc(C(=O)NC2CCc3cc(-c4noc(C(F)F)n4)ccc32)ccn1` (stereo not drawn) [Compound 5, N-(5-(5-(difluoromethyl)-1,2,4-oxadiazol-3-yl)-2,3-dihydro-1H-inden-1-yl)-2-methylisonicotinamide], in assay [1], the “CDMF75 IC15” value was 1140 nM and the IC50 (in general, the concentration that inhibits the measured activity by half) came out at 5100 nM. In assay [2], the inhibition at 10 µM is 73.2 ± 7.1%.

Consider `Cn1nnc(C(=O)N[C@@H]2CCc3cc(-c4noc(C(F)F)n4)ccc32)n1` [Compound 82, (R)-N-(5-(5-(difluoromethyl)-1,2,4-oxadiazol-3-yl)-2,3-dihydro-1H-inden-1-yl)-2-methyl-2H-tetrazole-5-carboxamide], for which, in assay [1], the “CDMF75 IC15” value is 500 nM and the IC50 was 2000 nM. In addition, in assay [2], the inhibition at 10 µM amounted to 89.6%. Also, the inhibition in vivo at 10 mg/kg in assay [3] (setting [5]) was found to be 65 ± 6%. In assay [3], the IC50 is 4900 nM and the IC10 (commonly the point of the concentration-response curve where the effect stands at 10%) was 1500 nM. Besides, the inhibition in vivo at 10 mg/kg in assay [3] (setting [6]) was 55 ± 8%.

In the case of `CCc1nc(-c2ccc3c(c2)CC[C@H]3NC(=O)c2cnn(CCO)c2)no1` [Compound 474, (R)—N-(5-(5-ethyl-1,2,4-oxadiazol-3-yl)-2,3-dihydro-1H-inden-1-yl)-1-(2-hydroxyethyl)-1H-pyrazole-4-carboxamide], in assay [1], the “CDMF75 IC15” value was found to be 600 nM and the IC50 was determined as 2200 nM. Moreover, the inhibition at 10 µM in assay [2] worked out at 75.2%. Further, the inhibition in vivo at 6 mg/kg in assay [3] (setting [5]) is 64 ± 8%. In assay [3], the IC50 is 1400 nM and the IC10 was 200 nM. The inhibition in vivo at 6 mg/kg in assay [3] (setting [6]) amounted to 27 ± 6%.

For `CCc1nc(-c2ccc3c(c2)CC[C@H]3NC(=O)c2cnn(C)c2)no1` [Compound 184, (R)—N-(5-(5-ethyl-1,2,4-oxadiazol-3-yl)-2,3-dihydro-1H-inden-1-yl)-1-methyl-1H-pyrazole-4-carboxamide], the inhibition at 5 µM in assay [2] (5 μM compound) came to 67.4%. In addition, the IC50 in assay [4] is 7200 ± 200 nM; in assay [3], 7900 nM. The inhibition in vivo at 2 mg/kg in assay [3] (setting [5]) was found to be 43 ± 9%; in assay [3] (setting [6]) it was 31 ± 9%. Besides, the IC10 in assay [3] was 800 nM.

`CCc1nc(-c2ccc3c(c2)CC[C@H]3NC(=O)c2cnn(C[C@@H](C)O)c2)no1` [Compound 542, N-[(1R)-5-(5-ethyl-1,2,4-oxadiazol-3-yl)-2,3-dihydro-1H-inden-1-yl]-1-[(2R)-2-hydroxypropyl]-1H-pyrazole-4-carboxamide]: in assay [1], the “CDMF75 IC15” value stood at 900 nM. Further, the 50% inhibitory concentration (IC50) in assay [1] and in assay [3] was 3500 nM each time. For the same compound, in assay [2], the inhibition at 10 µM was 68.4%. Besides, the inhibition in vivo at 4.5 mg/kg turned out to be 71 ± 1% in assay [3] (setting [5]) and 54 ± 7% in assay [3] (setting [6]). Further, the IC10 in assay [3] was 900 nM.

`CCc1nc(-c2ccc3c(c2)CC[C@H]3NC(=O)c2nnn(C)n2)no1` [Compound 183, (R)—N-(5-(5-ethyl-1,2,4-oxadiazol-3-yl)-2,3-dihydro-1H-inden-1-yl)-2-methyl-2H-tetrazole-5-carboxamide]: the “CDMF75 IC15” value in assay [1] stood at 300 nM. The half-maximal inhibitory concentration (IC50) is 900 nM in assay [1], 1200 ± 20 nM in assay [4] and 900 nM in assay [3]. Moreover, the inhibition in vivo at 2 mg/kg is 42 ± 16% in assay [3] (setting [5]) and 15 ± 13% in assay [3] (setting [6]). The concentration for an effect of 10% (IC10) in assay [3] is 200 nM.

Consider `Cc1cc(C(=O)N[C@@H]2CCc3cc(-c4noc(C)n4)ccc32)ccn1` [Compound 31, (R)-2-methyl-N-(5-(5-methyl-1,2,4-oxadiazol-3-yl)-2,3-dihydro-1H-inden-1-yl)isonicotinamide], for which, in assay [1], the “CDMF75 IC15” value stood at 1000 nM and the IC50 worked out at 3600 nM. Further, the inhibition at 10 µM in assay [2] stood at 23.3 ± 18.9%.

`CCc1nc(-c2ccc3c(c2)OC[C@H]3NC(=O)c2cnn(C)c2)no1` [Compound 238, (S)—N-(6-(5-ethyl-1,2,4-oxadiazol-3-yl)-2,3-dihydrobenzofuran-3-yl)-1-methyl-1H-pyrazole-4-carboxamide]: the “CDMF75 IC15” value in assay [1] amounted to 300 nM. For the same compound, the 50% inhibitory concentration (IC50) is 1000 nM in assay [1], 5700 ± 310 nM in assay [4] and 4900 nM in assay [3]. Moreover, the inhibition in vivo at 2 mg/kg in assay [3] (setting [5]) came to 52 ± 10%; in assay [3] (setting [6]), 59 ± 6%. Besides, in assay [3], the IC10 is 900 nM.

Regarding `Cc1cnoc1C(=O)N[C@@H]1CCc2cc(-c3noc(C(C)C)n3)ccc21` [Compound 116, (R)-N-(5-(5-isopropyl-1,2,4-oxadiazol-3-yl)-2,3-dihydro-1H-inden-1-yl)-4-methylisoxazole-5-carboxamide], in assay [1], the “CDMF75 IC15” value amounted to 300 nM and the IC50 is 1500 nM. Moreover, the inhibition at 10 µM in assay [2] was 72.5%.

Turning to `Cn1nccc1C(=O)N[C@@H]1COc2cc(-c3noc(C(F)F)n3)ccc21` [Compound 124, (S)—N-(6-(5-(difluoromethyl)-1,2,4-oxadiazol-3-yl)-2,3-dihydrobenzofuran-3-yl)-1-methyl-1H-pyrazole-5-carboxamide], in assay [1], the “CDMF75 IC15” value turned out to be 300 nM and the IC50 worked out at 900 nM. Also, in assay [2], the inhibition at 10 µM worked out at 84.6%. For the same compound, in assay [4], the IC50 is 700 ± 20 nM.
